# Measured values taken from patent US20220387433A1, “TYPE V PHOSPHODIESTERASE INHIBITOR COMPOSITIONS, METHODS OF MAKING THEM AND METHODS OF USING THEM IN PREVENTING OR TREATING ELEVATED PULMONARY VASCULAR PRESSURE OR PULMONARY HEMORRHAGES” (American Regent, Inc., priority 2019, published 2022).
# Columns and labels:
# [1] = test system: horses; assay: Target Animal Safety (TAS) study / toxicity of formulations in horses; type: in vivo; conditions: E-4021 containing meglumine, compared to E-4021 containing propylene glycol
# From the text: The drug product vehicle contains about 35-45 wt % alcohol, 46 wt % propylene glycol and 10 wt % WFI. […] Test doses (in horses) with the vehicle confirmed that the dose toxicity was due to the vehicle. More specifically, propylene glycol was believed to be the cause of toxicity.
# [2] = Pharmacokinetic study, plasma and urine concentrations; type: in vivo, horses
# Procedure: A pharmacokinetic (PK) study was conducted in six horses, namely three mares, two geldings and one stallion. The study measured plasma and urine concentrations of E-4021 (EIPHISOL®) after IV administration of 100 mg of E-4021 per horse. Plasma samples were collected pretreatment and then at 10, 20 and 30 minutes and 1, 1.5, 2, 2.5, 3, 3.5, 4, 4.5, 5, 5.5, 6, 8, 12, 17, 24 and 30 hours post administration. […] The mean area under the concentration-time curve extrapolated to infinity (AUC0-∞) was 217±83.5 hr*ng/mL. The mean volume of distribution (V) was 6.06±3.99 L/kg.
# Urine was collected for assaying E-4021 during four intervals: (1) a pre-dose sample collected from approximately −24 hours through 0 hours, (2) a 0 hour to 12 hour post-dose sample, (3) a 12 hour to 24 hour post-dose sample, and, (4) a 24 hour to 36 hour-post dose sample. There was wide variability in the concentration of E-4021 measured in urine, with maximum concentration ranging from 130-974 ng/mL. […] E-4021 concentration in urine remained above the quantitation limit (3 ng/mL) for four of the six horses at 36 hours post-dose.
# [3] = test system: mature, healthy horses; assay: Twenty-four week (6-month) target animal safety (TAS) study; type: in vivo
# Procedure: A twenty-four week (6-month) target animal safety (TAS) study was conducted to evaluate the safety of E-4021 (EIPHISOL®) in mature, healthy horses. The study was designed with 4 treatment groups of eight horses (two geldings, two stallions and four mares) in each group. Treatment groups included a Control (Group I: Isotonic saline at a volume equivalent to the largest volume given in the 5× (Group IV); 1× (Group II: 0.125 mg E4021 per pound body weight); 3× (Group III: 0.375 mg E4021 per pound body weight; and 5× (Group IV: 0.625 mg E4021 per pound body weight). Treatment groups were dosed intravenously alternating between the left and right jugular vein once every 7 days for 25 doses.
# Breeds represented in this study included Thoroughbred, Quarter Horse, Paint, Arabian, and Grade. The overall age ranged from 3 to 17 years, with a mean of 7.6±4.49 years. The majority of the horses were Thoroughbred (59.4%).
# Physical Examinations and Post-Dose Observations: Post-dose observations were conducted after every treatment to detect any acute abnormalities at 10-, 30-, and 60-minute intervals. […] As all groups (including the controls) recorded this finding (Table I), it is presumed that a factor other than the test article was responsible.
# [4] = test system: exercising horses; assay: Simulated race test (SRT) on high-speed treadmill; type: in vivo
# [5] = males in Group II (1×) and Group III (3×)
# [6] = males in Group III (3×) and Group IV (5×)
# [7] = 100 mg (15005, meglumine) 90 min prior to SRT
# [8] = 100 mg (16006, meglumine), 90 min., 4 hrs., 24 hrs. and 48 hrs. post-injection
substance,measurement,setting,value
"sodium 1-[6-chloro-4-(3,4-methylenedioxybenzyl)-aminoquinazolin-2-yl]piperidine-4-carboxylate sesquihydrate [E-4021]",Renal toxicity or blood in the urine,[1],did not have renal toxicity or blood in the urine
same,Mean clearance (CL),[2]; IV 100 mg per horse,19.5 ± 11.5 mL/min/kg
same,Mean volume of distribution (V),[2]; IV 100 mg per horse,6.06 ± 3.99 L/kg
same,Maximum concentration in urine,"[2]; IV 100 mg per horse, range over six horses",130 to 974 ng/mL
same,Concentration in urine at 36 hours post-dose,[2]; above quantitation limit for four of the six horses,> 3 ng/mL
same,Collection interval of maximum urine concentration,[2]; all six horses,12-hour post-dose collection
same,Mean Tmax,"[2]; plasma, IV 100 mg per horse",0.195 ± 0.020 h
same,Mean area under the concentration-time curve extrapolated to infinity (AUC0-∞),"[2]; plasma, IV 100 mg per horse",217 ± 83.5 ng·h/mL
same,Mean elimination half-life (T½),"[2]; plasma, IV 100 mg per horse",4.42 ± 2.91 h
same,Mean maximum concentration (Cmax) ±SD,"[2]; plasma, IV 100 mg per horse, six horses",295 ± 118 ng/mL
same,"Visual findings ataxia/dragging toes or behavioral/sedation, counted once per horse per group","[3]; 1X, PE Day 0",6
same,"Visual findings ataxia/dragging toes or behavioral/sedation, counted once per horse per group","[3]; 1X, PE Day 28",4
same,"Visual findings ataxia/dragging toes or behavioral/sedation, counted once per horse per group","[3]; 1X, PE Day 56",2
same,"Visual findings ataxia/dragging toes or behavioral/sedation, counted once per horse per group","[3]; 1X, PE Day 84",1
same,"Visual findings ataxia/dragging toes or behavioral/sedation, counted once per horse per group","[3]; 1X, PE Day 112",1
same,"Visual findings ataxia/dragging toes or behavioral/sedation, counted once per horse per group","[3]; 1X, PE Day 140",1
same,"Visual findings ataxia/dragging toes or behavioral/sedation, counted once per horse per group","[3]; 1X, PE Day 168",1
same,"Physical examination findings, treatment-related",[3]; 1× and 3×,no major abnormal physical examination findings
same,"Visual findings ataxia/dragging toes or behavioral/sedation, counted once per horse per group","[3]; 3X, PE Day 0",2
same,"Visual findings ataxia/dragging toes or behavioral/sedation, counted once per horse per group","[3]; 3X, PE Day 28",0
same,"Visual findings ataxia/dragging toes or behavioral/sedation, counted once per horse per group","[3]; 3X, PE Day 56",1
same,"Visual findings ataxia/dragging toes or behavioral/sedation, counted once per horse per group","[3]; 3X, PE Day 84",0
same,"Visual findings ataxia/dragging toes or behavioral/sedation, counted once per horse per group","[3]; 3X, PE Day 112",0
same,"Visual findings ataxia/dragging toes or behavioral/sedation, counted once per horse per group","[3]; 3X, PE Day 140",1
same,"Visual findings ataxia/dragging toes or behavioral/sedation, counted once per horse per group","[3]; 3X, PE Day 168",0
same,"Visual findings ataxia/dragging toes or behavioral/sedation, counted once per horse per group","[3]; 5X, PE Day 0",6
same,"Visual findings ataxia/dragging toes or behavioral/sedation, counted once per horse per group","[3]; 5X, PE Day 28",4
same,"Visual findings ataxia/dragging toes or behavioral/sedation, counted once per horse per group","[3]; 5X, PE Day 56",3
same,"Visual findings ataxia/dragging toes or behavioral/sedation, counted once per horse per group","[3]; 5X, PE Day 84",4
same,"Visual findings ataxia/dragging toes or behavioral/sedation, counted once per horse per group","[3]; 5X, PE Day 112",2
same,"Visual findings ataxia/dragging toes or behavioral/sedation, counted once per horse per group","[3]; 5X, PE Day 140",2
same,"Visual findings ataxia/dragging toes or behavioral/sedation, counted once per horse per group","[3]; 5X, PE Day 168",2
same,Blood urea nitrogen (BUN) vs Group I (Control),[3]; Day 140 for Group II (1×) and Day 154 for Group III (3×),significantly higher
same,MCH vs Group I (Control),[3]; Group II (1×) and Group IV (5×),no significant differences
same,Direct bilirubin vs Group I (Control),"[3]; Group II (1×), overall",significantly lower
same,Erythrocytes vs Group I (Control),"[3]; Group II (1×), overall",significantly lower
same,Hematocrit vs Group I (Control),"[3]; Group II (1×), overall",significantly lower
same,Hemoglobin vs Group I (Control),"[3]; Group II (1×), overall",significantly lower
same,MCHC vs Group I (Control),"[3]; Group II (1×), Days 14, 70, and 154",significantly higher
same,"Leukocytes vs Group I (Control), group-by-time","[3]; Group II (1×), Days 14 and 154",significantly lower
same,Glucose vs Group I (Control),"[3]; Group II (1×), Days 28, 42, 56, 70, and 140",significantly lower
same,APTT vs Group I (Control),"[3]; Group II (1×), Days 56, 140, and 168",significantly higher
same,Fibrinogen vs Group I (Control),"[3]; Group III (3×), overall",significantly lower
same,MCHC vs Group I (Control),"[3]; Group III (3×), Day 0",significantly lower
same,MCH vs Group I (Control),"[3]; Group III (3×), Day 56",significantly higher
same,APTT vs Group I (Control),"[3]; Group III (3×), Days 28, 56, 98, 140, and 168",significantly higher
same,"Leukocytes vs Group I (Control), group-by-time","[3]; Group III (3×), Days 84, 98, 112, 140, and 168",significantly higher
same,"Leukocytes vs Group I (Control), group-by-time",[3]; Group IV (5×),no significant differences
same,APTT vs Group I (Control),"[3]; Group IV (5×), Day 84",significantly lower
same,Blood urea nitrogen (BUN) vs Group I (Control),"[3]; Group IV (5×), Days 28, 42, 84, and 112",significantly lower
same,Glucose vs Group I (Control),"[3]; Group IV (5×), Days 28, 84, 140, and 168",significantly lower
same,APTT vs Group I (Control),"[3]; Group IV (5×), Days 56, 70, and 126",significantly higher
same,MCHC vs Group I (Control),"[3]; Group IV (5×), Days 98, 112, and 154",significantly higher
same,Physical examination findings at and immediately after dosing,"[3]; Group IV (5×), also recorded in controls, not dose related, not considered treatment related","transient locomotion (ataxia/dragging toes), or neurodepressant type effects (behavioral/sedation)"
same,Microscopic findings at the injection site(s),"[3]; IV jugular once every 7 days for 25 doses, attributed to minor trauma of injection procedure","minimal fibrosis of the dermis or vein, and minimal degeneration and necrosis of the underlying skeletal muscle"
same,Urinalysis findings,[3]; all groups,did not appear to be any indication of abnormal urinalysis findings
same,Bone marrow smears,"[3]; control and test-article treated horses, no dose relationship or correlation with decreased platelet counts on Day 168",low incidence of decreased megakaryocytes
same,"Leukocytes vs Group I (Control), group-by-sex",[3]; female horses in Group III (3×) and Group IV (5×),significantly higher
same,Globulin vs Group I (Control),[3]; females in Group II (1×),significantly higher
same,Albumin vs Group I (Control),[3]; females in Group II (1×) and Group III (3×),significantly lower
same,Sorbitol dehydrogenase vs Group I (Control),[3]; females in Group II (1×) and Group IV (5×),significantly higher
same,Lymphocytes/leukocytes vs control,"[3]; females, all treatment groups",no significant differences
same,Magnesium vs control,"[3]; females, all treatment groups",no significant difference
same,Neutrophils/leukocytes vs control,"[3]; females, all treatment groups",no significant differences
same,Macroscopic findings limited to the injection site,[3]; in vivo,no macroscopic findings
same,"Microscopic findings: mandibular salivary glands, related to test article","[3]; males given 1× and 3×, limited number examined",no microscopic findings
same,Liver to brain weight ratio (%) compared to control males,"[3]; males given the 3× dose, p=0.033, small magnitude, no dose response",statistically higher
same,Mean liver to body weight ratio (%) compared to control males,"[3]; males given the 3× dose, p=0.064, small magnitude, no dose response",statistically higher
same,"Leukocytes vs Group I (Control), group-by-sex",[3]; males in Group II (1×),significantly lower
same,Albumin vs Group I (Control),[3]; [5],significantly higher
same,Sorbitol dehydrogenase vs Group I (Control),[3]; [5],significantly higher
same,Globulin vs Group I (Control),[3]; [6],significantly lower
same,Lymphocytes/leukocytes vs Group I (Control),[3]; [6],significantly higher
same,Magnesium vs Group I (Control),[3]; males in Group IV (5×),significantly lower
same,Neutrophils/leukocytes vs Group I (Control),[3]; males in Group IV (5×),significantly lower
same,"Testicular changes, relation to dose",[3]; most consistent with spontaneous background findings,did not show evidence of a dose response
same,Microscopic findings: testes,"[3]; often with mononuclear cell infiltration and/or Leydig cell pigment accumulation, not in the single control male",Minimal seminiferous tubule degeneration
same,Adverse event of abdominal colic,"[3]; one horse Group II (1×) Day 51, one horse Control Day 54",did not appear to be associated with test article administration
same,Macroscopic observations at the end of dosing,"[3]; previous trauma, infectious diseases, degenerative/aging changes or euthanasia artifact",attributed to spontaneous background alterations
same,Fecal analysis findings,"[3]; two horses in Group III (3×) at Day 83, other groups normal",abnormal intestinal mucosa
same,Oxygen uptake compared to control,[4]; [7],not significantly different
same,PAsO2 compared to control,[4]; [7],not significantly different
same,Plasma lactate compared to control,[4]; [7],not significantly different
same,Duration of pulmonary artery pressure reduction effect,"[4]; 100 mg (16006, containing meglumine), post-injection for SRT",at least 24 hours
same,Oxygen uptake compared to control,[4]; [8],not significantly different
same,PAsO2 compared to control,[4]; [8],not significantly different
same,Plasma lactate compared to control,[4]; [8],not significantly different
same,"PA pressure during exercise, comparison of doses and times","[4]; 100 mg dose given 90 minutes prior to exercise, propylene glycol formulation, P<0.05",lowest PA pressure
same,Pulmonary artery pressures during intense exercise,"[4]; IV, propylene glycol formulation of Table 1, Phase II and III, most apparent at 2-minute point of high intensity run",substantially and significantly lower
same,Effect on VO2,[4]; SRTs in Phase II and Phase III,no effect
same,Pulmonary artery pressure after exercise at 48 hours,[4]; about 100 mg E-4021 containing meglumine (FIG. 21),lower than the control
same,Pulmonary artery pressure compared to control,"[4]; single dose 100 mg (15005, meglumine formulation of Table 3) 90 minutes prior to SRT",reduces
